Assay results from patent US10457703B2, “Bile acid derivatives as FXR/TGR5 agonists and methods of use thereof” (ENANTA PHARMACEUTICALS, INC., priority 2015, dated 2019).

Molecular target: human FXR (NR1H4) (Homo sapiens (Human), UniProt Q96RI1)
Experiment: Human FXR (NR1H4) Assay (Gal4 promoter driven luciferase reporter, Indigo Bioscience kit);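 for Efficacy (%): 100% equals the efficacy of CDCA; efficacy normalized to CDCA set as 100%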
Format: cell-based
Settings: for EC50: Human FXR (NR1H4) Assay, potency ranges; for Emax: read-out: Efficacy (%)
Outline: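 CHO reporter cells expressing human FXR with an FXR-responsive luciferase reporter, treated with compound doses at 0.2% DMSO. Incubation lasted 22 h at 37 °C before luciferase detection reagent was added. Luminescence was then read.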

Chain of human FXR (NR1H4) (Q96RI1 whole entry, the tested form may be a part): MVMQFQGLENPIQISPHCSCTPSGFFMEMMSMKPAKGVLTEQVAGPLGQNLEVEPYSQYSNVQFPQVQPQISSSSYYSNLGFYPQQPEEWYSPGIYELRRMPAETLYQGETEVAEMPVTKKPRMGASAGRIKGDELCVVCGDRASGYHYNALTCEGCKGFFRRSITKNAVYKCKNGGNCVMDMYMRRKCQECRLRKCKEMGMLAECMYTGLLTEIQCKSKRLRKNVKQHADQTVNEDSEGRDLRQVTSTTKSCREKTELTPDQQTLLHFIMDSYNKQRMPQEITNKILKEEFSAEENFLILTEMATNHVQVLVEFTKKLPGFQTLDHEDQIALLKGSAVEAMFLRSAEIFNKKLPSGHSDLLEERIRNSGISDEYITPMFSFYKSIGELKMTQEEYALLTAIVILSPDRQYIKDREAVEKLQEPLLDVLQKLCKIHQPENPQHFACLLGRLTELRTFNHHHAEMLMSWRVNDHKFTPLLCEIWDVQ

Compound | EC50 [nM] | Emax [%]
CC[C@H]1[C@@H](O)[C@@H]2[C@H](CC[C@]3(C)[C@@H]([C@H](C)CCOC(=O)NC4(C)CC4)CC[C@@H]23)[C@@]2(C)CC[C@@H](O)C[C@@H]12 [Example 135] | 100 to 1000 | 224
CC[C@H]1[C@@H](O)[C@@H]2[C@H](CC[C@]3(C)[C@@H]([C@H](C)CCOC(=O)NC(C)C)CC[C@@H]23)[C@@]2(C)CC[C@@H](O)C[C@@H]12 [Example 136] | 100 to 1000 | 185
CC[C@H]1[C@@H](O)[C@@H]2[C@H](CC[C@]3(C)[C@@H]([C@H](C)CCOC(=O)NCC(C)C)CC[C@@H]23)[C@@]2(C)CC[C@@H](O)C[C@@H]12 [Example 137] | 100 to 1000 | 270
CC[C@H]1[C@@H](O)[C@@H]2[C@H](CC[C@]3(C)[C@@H]([C@H](C)CCOC(=O)NC4CCCCCC4)CC[C@@H]23)[C@@]2(C)CC[C@@H](O)C[C@@H]12 [Example 138] | 100 to 1000 | 297
CC[C@H]1[C@@H](O)[C@@H]2[C@H](CC[C@]3(C)[C@@H]([C@H](C)CCOC(=O)NC(C)CO)CC[C@@H]23)[C@@]2(C)CC[C@@H](O)C[C@@H]12 (some centres unmarked) [Example 139] | 100 to 1000 | 310
CC[C@H]1[C@@H](O)[C@@H]2[C@H](CC[C@]3(C)[C@@H]([C@H](C)CCOC(=O)NCCSC)CC[C@@H]23)[C@@]2(C)CC[C@@H](O)C[C@@H]12 [Example 140] | 100 to 1000 | 246
CC[C@H]1[C@@H](O)[C@@H]2[C@H](CC[C@]3(C)[C@@H]([C@H](C)CCOC(=O)NCCc4c[nH]c5ccccc45)CC[C@@H]23)[C@@]2(C)CC[C@@H](O)C[C@@H]12 [Example 141] | 100 to 1000 | 293
CC[C@H]1[C@@H](O)[C@@H]2[C@H](CC[C@]3(C)[C@@H]([C@H](C)CCOC(=O)NCC(C)(C)O)CC[C@@H]23)[C@@]2(C)CC[C@@H](O)C[C@@H]12 [Example 142] | 100 to 1000 | 247
CC[C@H]1[C@@H](O)[C@@H]2[C@H](CC[C@]3(C)[C@@H]([C@H](C)CCOC(=O)NCCc4cccs4)CC[C@@H]23)[C@@]2(C)CC[C@@H](O)C[C@@H]12 [Example 143] | 100 to 1000 | 202
CC[C@H]1[C@@H](O)[C@@H]2[C@H](CC[C@]3(C)[C@@H]([C@H](C)CCOC(=O)NCCc4ccc(OC)c(OC)c4)CC[C@@H]23)[C@@]2(C)CC[C@@H](O)C[C@@H]12 [Example 144] | 100 to 1000 | 229
CCOC(=O)C1CCN(C(=O)OCC[C@@H](C)[C@H]2CC[C@H]3[C@@H]4[C@H](O)[C@H](CC)[C@@H]5C[C@H](O)CC[C@]5(C)[C@H]4CC[C@]23C)CC1 [Example 145] | 1000 to 10000 | 247
CC[C@H]1[C@@H](O)[C@@H]2[C@H](CC[C@]3(C)[C@@H]([C@H](C)CCOC(=O)N4CCCCC4)CC[C@@H]23)[C@@]2(C)CC[C@@H](O)C[C@@H]12 [Example 146] | < 100 | 223
CC[C@H]1[C@@H](O)[C@@H]2[C@H](CC[C@]3(C)[C@@H]([C@H](C)CCOC(=O)N4CCCC4)CC[C@@H]23)[C@@]2(C)CC[C@@H](O)C[C@@H]12 [Example 147] | < 100 | 228
CC[C@H]1[C@@H](O)[C@@H]2[C@H](CC[C@]3(C)[C@@H]([C@H](C)CCCOC(=O)N4CCC(N5CCCCC5)CC4)CC[C@@H]23)[C@@]2(C)CC[C@@H](O)C[C@@H]12 [Example 148] | 1000 to 10000 | 37
CC[C@H]1[C@@H](O)[C@@H]2[C@H](CC[C@]3(C)[C@@H]([C@H](C)CCCOC(=O)N(C)OC)CC[C@@H]23)[C@@]2(C)CC[C@@H](O)C[C@@H]12 [Example 149] | 1000 to 10000 | 232
CCCCCNC(=O)OCC[C@@H](C)[C@H]1CC[C@H]2[C@@H]3[C@H](O)[C@H](CC)[C@@H]4C[C@H](O)CC[C@]4(C)[C@H]3CC[C@]12C [Example 150] | 100 to 1000 | 303
CC[C@H]1[C@@H](O)[C@@H]2[C@H](CC[C@]3(C)[C@@H]([C@H](C)CCOC(=O)NCCN4CCOCC4)CC[C@@H]23)[C@@]2(C)CC[C@@H](O)C[C@@H]12 [Example 151] | 100 to 1000 | 253
CC[C@H]1[C@@H](O)[C@@H]2[C@H](CC[C@]3(C)[C@@H]([C@H](C)CCOC(=O)NCCCN4CCOCC4)CC[C@@H]23)[C@@]2(C)CC[C@@H](O)C[C@@H]12 [Example 152] | 100 to 1000 | 276
CC[C@H]1[C@@H](O)[C@@H]2[C@H](CC[C@]3(C)[C@@H]([C@H](C)CCOC(=O)NCCO)CC[C@@H]23)[C@@]2(C)CC[C@@H](O)C[C@@H]12 [Example 153] | 100 to 1000 | 230
CC[C@H]1[C@@H](O)[C@@H]2[C@H](CC[C@]3(C)[C@@H]([C@H](C)CCOC(=O)N[C@H](C(=O)OC)C(C)C)CC[C@@H]23)[C@@]2(C)CC[C@@H](O)C[C@@H]12 [Example 154] | 100 to 1000 | 138
CC[C@H]1[C@@H](O)[C@@H]2[C@H](CC[C@]3(C)[C@@H]([C@H](C)CCOC(=O)N[C@H](C(=O)O)C(C)C)CC[C@@H]23)[C@@]2(C)CC[C@@H](O)C[C@@H]12 [Example 155] | 100 to 1000 | 278
CCOC(=O)CNC(=O)OCC[C@@H](C)[C@H]1CC[C@H]2[C@@H]3[C@H](O)[C@H](CC)[C@@H]4C[C@H](O)CC[C@]4(C)[C@H]3CC[C@]12C [Example 156] | 100 to 1000 | 193
CC[C@H]1[C@@H](O)[C@@H]2[C@H](CC[C@]3(C)[C@@H]([C@H](C)CCOC(=O)NCC(=O)O)CC[C@@H]23)[C@@]2(C)CC[C@@H](O)C[C@@H]12 [Example 157] | 1000 to 10000 | 178
CC[C@H]1[C@@H](O)[C@@H]2[C@H](CC[C@]3(C)[C@@H]([C@H](C)CCOC(=O)NCc4ccc(O)cc4)CC[C@@H]23)[C@@]2(C)CC[C@@H](O)C[C@@H]12 [Example 158] | 100 to 1000 | 240
CC[C@H]1[C@@H](O)[C@@H]2[C@H](CC[C@]3(C)[C@@H]([C@H](C)CCOC(=O)NCc4ccc(C(=O)O)cc4)CC[C@@H]23)[C@@]2(C)CC[C@@H](O)C[C@@H]12 [Example 159] | 100 to 1000 | 221
CC[C@H]1[C@@H](O)[C@@H]2[C@H](CC[C@]3(C)[C@@H]([C@H](C)CCOC(=O)N4CCOCC4)CC[C@@H]23)[C@@]2(C)CC[C@@H](O)C[C@@H]12 [Example 160] | 100 to 1000 | 142
CC[C@H]1[C@@H](O)[C@@H]2[C@H](CC[C@]3(C)[C@@H]([C@H](C)CCOC(=O)N4CCC(Cc5ccccc5)CC4)CC[C@@H]23)[C@@]2(C)CC[C@@H](O)C[C@@H]12 [Example 161] | 100 to 1000 | 226
CC[C@H]1[C@@H](O)[C@@H]2[C@H](CC[C@]3(C)[C@@H]([C@H](C)CCOC(=O)N4CCC4)CC[C@@H]23)[C@@]2(C)CC[C@@H](O)C[C@@H]12 [Example 162] | 100 to 1000 | 277
